According to patent US5859026A, “Quinoline carboxylic acid” (priority 1995, dated 1999):
Converted amounts (≈) assume the structure as drawn.

Legend:
E. coli NIHJ JC-2 = assay: Antibacterial activity (MIC), standard strain; assay type: cell-based; details: Escherichia coli, NIHJJC2; standard strain E. coli NIHJ JC-2, Gram -, 10^6 viable cells per ml; read-out: minimum inhibitory concentration (MIC)
Excerpt: (§1) 1. Antibacterial spectrum against standard strains and clinically isolated strains

K. pneumoniae PCI-602 = assay: Antibacterial activity (MIC), standard strain; assay type: cell-based; details: Klebsiella pneumoniae, PCI602; standard strain K. pneumoniae PCI-602, Gram -, 10^6 viable cells per ml; read-out: minimum inhibitory concentration (MIC)
Excerpt: as §1

S. aureus FDA 209P JC-1 = assay: Antibacterial activity (MIC), standard strain; assay type: cell-based; details: Staphylococcus aureus, FDA209P; standard strain S. aureus FDA 209P JC-1, Gram +, 10^6 viable cells per ml; read-out: minimum inhibitory concentration (MIC)
Excerpt: as §1

S. marcescens IAM 1184 = assay: Antibacterial activity (MIC), standard strain; assay type: cell-based; details: Serratia marcescens, IAM1184; standard strain S. marcescens IAM 1184, Gram -, 10^6 viable cells per ml; read-out: minimum inhibitory concentration (MIC)
Excerpt: as §1

E. colacae 963 = assay: Antibacterial activity (MIC), standard strain; assay type: cell-based; details: Enterobacter cloacae; standard strain E. colacae 963, Gram -, 10^6 viable cells per ml; read-out: minimum inhibitory concentration (MIC)
Experimental: as §1
Antibacterial activities (minimum inhibitory concentration: MIC) were determined according to the standard method of the Japan Society of Chemotherapy (Chemotherapy (Tokyo), 29 (1), 76, 1981) by using standard strains and strains isolated from patients of infectious disease (clinically isolated strains) and applying 10^6 viable cells per ml. […].

A. calcoaceticus HNR904 = assay: Antibacterial activity (MIC), clinically isolated strain; assay type: cell-based; details: Acinetobacter calcoaceticus; clinical isolate A. calcoaceticus HNR904, Gram -, 10^6 viable cells per ml; read-out: minimum inhibitory concentration (MIC)
Excerpt: as §1

A. calcoaceticus HNR916 = assay: as above; assay type: cell-based; details: Acinetobacter calcoaceticus; clinical isolate A. calcoaceticus HNR916, Gram -, 10^6 viable cells per ml; read-out: minimum inhibitory concentration (MIC)
Excerpt: as §1

E. cloacae HNR1939 = assay: as above; assay type: cell-based; details: Enterobacter cloacae; clinical isolate E. cloacae HNR1939, Gram -, 10^6 viable cells per ml; read-out: minimum inhibitory concentration (MIC)
Excerpt: as §1

E. cloacae HNR1941 = assay: as above; assay type: cell-based; details: Enterobacter cloacae; clinical isolate E. cloacae HNR1941, Gram -, 10^6 viable cells per ml; read-out: minimum inhibitory concentration (MIC)
Excerpt: as §1

E. cloacae HNR1946 = assay: as above; assay type: cell-based; details: Enterobacter cloacae; clinical isolate E. cloacae HNR1946, Gram -, 10^6 viable cells per ml; read-out: minimum inhibitory concentration (MIC)
Excerpt: as §1

E. faecalis HPC948 = assay: as above; assay type: cell-based; details: Enterococcus faecalis; clinical isolate E. faecalis HPC948, Gram +, 10^6 viable cells per ml; read-out: minimum inhibitory concentration (MIC)
Excerpt: as §1

E. faecalis HPC975 = assay: as above; assay type: cell-based; details: Enterococcus faecalis; clinical isolate E. faecalis HPC975, Gram +, 10^6 viable cells per ml; read-out: minimum inhibitory concentration (MIC)
Excerpt: as §1

E. faecalis HPC984 = assay: as above; assay type: cell-based; details: Enterococcus faecalis; clinical isolate E. faecalis HPC984, Gram +, 10^6 viable cells per ml; read-out: minimum inhibitory concentration (MIC)
Excerpt: as §1

K. pneumoniae HNR858 = assay: as above; assay type: cell-based; details: Klebsiella pneumoniae; clinical isolate K. pneumoniae HNR858, Gram -, 10^6 viable cells per ml; read-out: minimum inhibitory concentration (MIC)
Excerpt: as §1

K. pneumoniae HNR869 = assay: as above; assay type: cell-based; details: Klebsiella pneumoniae; clinical isolate K. pneumoniae HNR869, Gram -, 10^6 viable cells per ml; read-out: minimum inhibitory concentration (MIC)
Excerpt: as §1

S. aureus HPC308 = assay: as above; assay type: cell-based; details: Staphylococcus aureus; clinical isolate S. aureus HPC308, Gram +, 10^6 viable cells per ml; read-out: minimum inhibitory concentration (MIC)
Excerpt: as §1

S. aureus HPC527 = assay: as above; assay type: cell-based; details: Staphylococcus aureus; clinical isolate S. aureus HPC527, Gram +, 10^6 viable cells per ml; read-out: minimum inhibitory concentration (MIC)
Excerpt: as §1

S. aureusHPC292 = assay: as above; assay type: cell-based; details: Staphylococcus aureus; clinical isolate S. aureus HPC292, Gram +, 10^6 viable cells per ml; read-out: minimum inhibitory concentration (MIC)
Excerpt: as §1

S. marcescens HNR1544 = assay: as above; assay type: cell-based; details: Serratia marcescens; clinical isolate S. marcescens HNR1544, Gram -, 10^6 viable cells per ml; read-out: minimum inhibitory concentration (MIC)
Excerpt: as §1

S. marcescens HNR1792 = assay: as above; assay type: cell-based; details: Serratia marcescens; clinical isolate S. marcescens HNR1792, Gram -, 10^6 viable cells per ml; read-out: minimum inhibitory concentration (MIC)
Excerpt: as §1

[1] = tested on: Chinese hamster lung cell line (CHL cell); assay: Chromosomal aberration test; assay type: cell-based; details: 100 μg/ml, 6 hours treatment at 37° C., then 18 hours in fresh medium
Experimental: 2. Chromosomal aberration test
The experiments were carried out using a Chinese hamster lung cell line (CHL cell). The test compounds prepared were added to cultured cells, and cultivation was continued for 6 hours at 37° C. in 5% CO2. 2-(2-furyl)-3-(5-nitro-2-furyl) acrylamide was used as a positive control. After the cultivation for 6 hours, the cells were washed and added with fresh medium, and then cultivation was further continued for 18 hours. Colcemide solution was added to the culture 2 hours before the completion of the cultivation, and the chromosomal specimens were prepared after the cultivation was completed. Incidence rates of aberration cells were measured at the treatments with 100 μg/ml of the test compounds.

Male Hartley guinea pigs = assay: Phototoxicity; assay type: in vivo, guinea pig; details: 10 mg/kg intravenous, UV exposure 90 minutes, observed 24 hours after irradiation
Experimental: Male Hartley guinea pigs were intravenously administered with test compounds at a dose of 10 mg/kg, and then immediately exposed to WVA on their backs for 90 minutes. Erythemas on the UV irradiated skin were observed 24 hours after the irradiation.

male ICR mice = assay: Induction of convulsions, intraperitoneal (i.p.) administration; assay type: in vivo, mouse; details: 100 mg/kg i.p., 30 minutes after oral fenbufen 100 mg/kg; for Induction of convulsion, i.p. (number of mice with convulsions): animals with convulsions/animals tested
Excerpt: 4. The induction of convulsions
1) Intraperitoneal (i.p.) administration

Male Wistar rats = assay: Induction of convulsions, intracerebroventricular (i.c.v.) administration; assay type: in vivo, rat; details: 30 minutes after i.p. fenbufen 50 mg/kg, observed at least 4 hours
Experimental: 2) Intracerebroventricular (i.c.v.) administration
Male Wistar rats (weighing 180-220 g) were anesthetized with sodium pentobarbital at 45 mg/kg, i.p., and then the head of the rat was fixed in a stereotaxic apparatus. A stainless steel guide cannula for intracerebroventricular injectionin in 0.6 mm diameter was implanted as a guide cannula so as to be positioned at 1.5 mm above the left lateral cerebroventricle (A:6.2,R:1.0,H:+1.0) according to the brain atlas of De Groot (1959). The guide cannula was fixed by using a dental cement, and then closed with a stainless steel stylet in 0.3 mm diameter. Potassium penicillin G (10,000 units) were subcutaneously administered to prevent an infection. The rats were subjected to the experiments after recovery time for several days from the surgery.
For the measurement of the induction of convulsions, 50 mg/kg of fenbufen was intraperitoneally administered, and then the test compound was intracerebroventricularly administered after 30 minutes from the administration of fenbufen by means of a stainless steel cannula in 0.3 mm diameter that was connected with a polyethylene catheter and adjusted so as to be 1.5 mm longer than the guide cannula for an administration at an accurate position of cerebroventricle (H:+1.0). […] After the completion of the above experiment, the administered positions were confirmed by intraventricularly injecting 10 μl of 1% Evans blue to each of the rats, and followed by sectioning the brains.

A. calcoaceticus HNR939 = assay: Antibacterial activity (MIC), clinically isolated strain; assay type: cell-based; details: Acinetobacter calcoaceticus; clinical isolate A. calcoaceticus HNR939, Gram -, 10^6 viable cells per ml; read-out: minimum inhibitory concentration (MIC)
Excerpt: as §1

K. pneumoniae HNR828 = assay: as above; assay type: cell-based; details: Klebsiella pneumoniae; clinical isolate K. pneumoniae HNR828, Gram -, 10^6 viable cells per ml; read-out: minimum inhibitory concentration (MIC)
Excerpt: as §1

S. marcescens HNR1767 = assay: as above; assay type: cell-based; details: Serratia marcescens; clinical isolate S. marcescens HNR1767, Gram -, 10^6 viable cells per ml; read-out: minimum inhibitory concentration (MIC)
Excerpt: as §1

Cc1c(N2C[C@@H](N)[C@@H](C)C2)c(F)c(N)c2c(=O)c(C(=O)O)cn(C3CC3)c12 [Compound 1, 5-amino-7-((3S,4S)-3-amino-4-methyl-1-pyrrolidinyl)-1-cyclopropyl-6-fluoro-1,4-dihydro-8-methyl-4-oxoquinoline-3-carboxylic acid]
MIC (E. coli NIHJ JC-2): 0.006 µg/mL (≈ 0.016 µM) | MIC (K. pneumoniae PCI-602): 0.0008 µg/mL (≈ 0.00214 µM) | MIC (S. aureus FDA 209P JC-1): 0.006 µg/mL (≈ 0.016 µM) | MIC (S. marcescens IAM 1184): 0.05 µg/mL (≈ 0.134 µM) | MIC (E. colacae 963): 0.012 µg/mL (≈ 0.032 µM) | MIC (A. calcoaceticus HNR904): 1.56 µg/mL (≈ 4.17 µM) | MIC (A. calcoaceticus HNR916): 0.006 µg/mL (≈ 0.016 µM) | MIC (E. cloacae HNR1939): 0.1 µg/mL (≈ 0.267 µM) | MIC (E. cloacae HNR1941): 3.13 µg/mL (≈ 8.36 µM) | MIC (E. cloacae HNR1946): 0.1 µg/mL (≈ 0.267 µM) | MIC (E. faecalis HPC948): 0.1 µg/mL (≈ 0.267 µM) | MIC (E. faecalis HPC975): 0.78 µg/mL (≈ 2.08 µM) | MIC (E. faecalis HPC984): 0.05 µg/mL (≈ 0.134 µM) | MIC (K. pneumoniae HNR858): 0.1 µg/mL (≈ 0.267 µM) | MIC (K. pneumoniae HNR869): 0.78 µg/mL (≈ 2.08 µM) | MIC (S. aureus HPC308): 0.2 µg/mL (≈ 0.534 µM) | MIC (S. aureus HPC527): 0.006 µg/mL (≈ 0.016 µM) | MIC (S. aureusHPC292): 0.78 µg/mL (≈ 2.08 µM) | MIC (S. marcescens HNR1544): 0.025 µg/mL (≈ 0.0668 µM) | MIC (S. marcescens HNR1792): 1.56 µg/mL (≈ 4.17 µM) | incidence rate of the aberration cells [1]: less than 10% | Phototoxicity (in words) (Male Hartley guinea pigs): induced no phototoxicity | Phototoxicity (number of guinea pigs with erythemas) (Male Hartley guinea pigs; animals with erythemas/animals tested): 0/5 | Induction of convulsions, i.p. (in words) (male ICR mice): did not induce convulsions | Induction of convulsion, i.p. (number of mice with convulsions) (male ICR mice): 0/6

O=C(O)c1cn(C2CC2)c2cc(N3CCNCC3)c(F)cc2c1=O [Reference Compound A, Ciprofloxacin]
incidence rate of the aberration cells [1]: less than 10% | Induction of convulsions, i.p. (in words) (male ICR mice): convulsions were observed in the half of the animals | Induction of convulsion, i.p. (number of mice with convulsions) (male ICR mice): 3/6 | Induction of convulsions, i.c.v. (in words) (Male Wistar rats): convulsions were observed in all of the animals (each three animals) | Induction of convulsion, i.c.v. (number of rats with convulsions) (Male Wistar rats; animals with convulsions/animals tested): 3/3

CC[C@H]1CN(c2c(F)c(N)c3c(=O)c(C(=O)O)cn(C4CC4)c3c2C)C[C@H]1N [Compound 2, 5-amino-7-((3S,4S)-3-amino-4-ethyl-1-pyrrolidinyl)-1-cyclopropyl-6-fluoro-1,4-dihydro-8-methyl-4-oxoquinoline-3-carboxylic acid]
MIC (E. coli NIHJ JC-2): 0.012 µg/mL (≈ 0.0309 µM) | MIC (K. pneumoniae PCI-602): ≤ 0.0015 µg/mL | MIC (S. aureus FDA 209P JC-1): 0.006 µg/mL (≈ 0.0154 µM) | MIC (S. marcescens IAM 1184): 0.1 µg/mL (≈ 0.257 µM) | MIC (E. colacae 963): 0.025 µg/mL (≈ 0.0644 µM) | MIC (A. calcoaceticus HNR904): 3.13 µg/mL (≈ 8.06 µM) | MIC (A. calcoaceticus HNR916): 0.012 µg/mL (≈ 0.0309 µM) | MIC (A. calcoaceticus HNR939): 0.2 µg/mL (≈ 0.515 µM) | MIC (E. cloacae HNR1939): 0.2 µg/mL (≈ 0.515 µM) | MIC (E. cloacae HNR1941): 6.25 µg/mL (≈ 16.1 µM) | MIC (E. cloacae HNR1946): 0.2 µg/mL (≈ 0.515 µM) | MIC (E. faecalis HPC948): 0.2 µg/mL (≈ 0.515 µM) | MIC (E. faecalis HPC975): 0.78 µg/mL (≈ 2.01 µM) | MIC (E. faecalis HPC984): 0.05 µg/mL (≈ 0.129 µM) | MIC (K. pneumoniae HNR828): 3.13 µg/mL (≈ 8.06 µM) | MIC (K. pneumoniae HNR858): 0.2 µg/mL (≈ 0.515 µM) | MIC (K. pneumoniae HNR869): 1.56 µg/mL (≈ 4.02 µM) | MIC (S. aureus HPC308): 0.1 µg/mL (≈ 0.257 µM) | MIC (S. aureus HPC527): 0.006 µg/mL (≈ 0.0154 µM) | MIC (S. aureusHPC292): 0.78 µg/mL (≈ 2.01 µM) | MIC (S. marcescens HNR1544): 0.05 µg/mL (≈ 0.129 µM) | MIC (S. marcescens HNR1767): 12.5 µg/mL (≈ 32.2 µM) | MIC (S. marcescens HNR1792): 1.56 µg/mL (≈ 4.02 µM)
